Earlier results, collected in the CATMoS acute toxicity set (Mansouri et al. 2021).
Values joined by “and” are separate entries in the source; they are usually repeats but may differ in a detail not shown here. Equal entries are not always repeated.

Experiment: rat acute oral toxicity
Settings: in vivo
For `CCC(C)c1cc(OC(=O)NC)ccc1C` (stereo not drawn), the LD50 is listed as 35 mg/kg. For `CN(C)c1ccncc1`, the LD50 is listed as 250 mg/kg. In the case of `OCCN1CCCN(CCCN2c3ccccc3C=Cc3ccccc32)CC1`, the LD50 is listed as 2410 mg/kg. For `COc1ccc(C2Sc3ccccc3N(CCN(C)C)C(=O)C2OC(C)=O)cc1` (stereo not drawn), the LD50 is given as 560 mg/kg. In the case of `O=C(O)C(F)(F)C(F)(F)C(F)(F)C(F)(F)C(F)(F)C(F)F`, the LD50 is given as 1440 mg/kg. In the case of `NC1(C(=O)O)CCCC1`, the LD50 is listed as 290 mg/kg and 260 mg/kg. In the case of `ClCC=C(Cl)CCl`, the LD50 is listed as 224 mg/kg. For `ClC1=C(Cl)C2(Cl)C3C(Cl)C(Cl)CC3C1(Cl)C2(Cl)Cl` (stereo not drawn), the LD50 is given as 283 mg/kg. In the case of `C[N+]1(C)[C@@H]2CC[C@H]1C[C@@H](OC(=O)C(O)c1ccccc1)C2` (stereo partly drawn), the LD50 is given as 1200 mg/kg. In the case of `CC(C)(N)CO`, the LD50 is listed as 2900 mg/kg. For `COP(=S)(OC)Oc1ccc([N+](=O)[O-])c(Cl)c1`, the LD50 is given as 285 mg/kg. In the case of `O=C1N=C2c3ccccc3N=CN2C1=Cc1ccc([N+](=O)[O-])cc1`, the LD50 is listed as 1290 mg/kg. For `CC(C)(C)/N=C(\NC#N)Nc1cccnc1`, the LD50 is given as 278 mg/kg. For `COC(C)CC(=O)O` (stereo not drawn), the LD50 is listed as 3030 mg/kg. In the case of `Nc1cccc2c3c([nH]c12)CCCC3`, the LD50 is given as 1380 mg/kg. For `CNC1=Nc2ccc(Cl)cc2C(c2ccccc2)=[N+]([O-])C1`, the LD50 is listed as 537 mg/kg. For `CNc1nc(Cl)c(SC)c(N2CCN(C)CC2)n1`, the LD50 is listed as 800 mg/kg. For `Clc1ccc(N2N=N[C@@H]3[C@@H]4C[C@@H]([C@H]5N=N[C@@H]45)[C@@H]32)cc1`, the LD50 is listed as 261 mg/kg. In the case of `CCOP(=S)(Oc1cccc2cccnc12)c1ccccc1` (stereo not drawn), the LD50 is given as 150 mg/kg. In the case of `CCCCOCCOCCSC#N`, the LD50 is listed as 90 mg/kg. For `C1CCCCC1`, the LD50 is given as 12700 mg/kg. In the case of `O=C1OCC2C1C1(Cl)C(Cl)=C(Cl)C2(Cl)C1(Cl)Cl` (stereo not drawn), the LD50 is listed as 105 mg/kg. In the case of `CC/C(=C(\c1ccccc1)c1ccc(OCCN(C)C)cc1)c1ccccc1`, the LD50 is listed as 4100 mg/kg. For `O=C1c2ccccc2C(=O)C1c1ccc(C(F)(F)F)cc1`, the LD50 is listed as 198 mg/kg. For `CC[C@H]1CCCC(O[C@H]2CC[C@H](N(C)C)[C@@H](C)O2)[C@@H](C)C(=O)C2=C[C@@H]3[C@@H](C=C[C@@H]4C[C@@H](O[C@@H]5O[C@@H](C)[C@H](OC)[C@@H](OC)[C@H]5OC)C[C@@H]34)[C@@H]2CC(=O)O1` (stereo partly drawn), the LD50 is listed as 3740 mg/kg. For `Nc1ccc(C(F)(F)F)cc1NC(=O)c1cccnc1`, the LD50 is listed as 850 mg/kg. For `CC(C)(C)C(=O)OCOC(=O)[C@@H]1N2C(=O)[C@@H](N=CN3CCCCCC3)[C@H]2SC1(C)C`, the LD50 is listed as 9500 mg/kg. For `Nc1ncnc2nccnc12`, the LD50 is given as 745 mg/kg. For `CCCCCCCC(C)=O`, the LD50 is given as 3200 mg/kg. In the case of `CCBr`, the LD50 is given as 1350 mg/kg. In the case of `O=C(O)CCCCCCl`, the LD50 is given as 3080 mg/kg. In the case of `Nc1ccc2c(c1)C1CCCCC1N2` (stereo not drawn), the LD50 is given as 275 mg/kg. For `CC(C)C1=Nc2ccccc2C1=C(N)c1cccnc1`, the LD50 is given as 350 mg/kg. In the case of `CCOC(=O)C(N)Cc1ccc(O)cc1` (stereo not drawn), the LD50 is given as 13800 mg/kg. For `CCCC[P+](CCCC)(CCCC)CCCC`, the LD50 is given as 916 mg/kg and 420 mg/kg. For `CCOC(=O)CN=C=O`, the LD50 is listed as 1130 mg/kg. In the case of `ClC(COCC(Cl)C(Cl)(Cl)Cl)C(Cl)(Cl)Cl` (stereo not drawn), the LD50 is listed as 3630 mg/kg. In the case of `CCCCC(CC)COCCO` (stereo not drawn), the LD50 is listed as 3080 mg/kg. In the case of `CN1C(C(=O)Nc2ccccn2)C(=O)c2sc(Cl)cc2S1(=O)=O` (stereo not drawn), the LD50 is listed as 5.73 mg/kg. In the case of `CCCCN(CCCC)CCCN`, the LD50 is given as 820 mg/kg. For `CCN1CCCC1CNC(=O)c1cc(S(=O)(=O)CC)ccc1OC` (stereo not drawn), the LD50 is given as 2100 mg/kg. For `CN1CC[C@@]2(C)c3cc(OC(=O)NCCCCCCCCCCN4CCCCC4)ccc3N(C)[C@@H]12`, the LD50 is listed as 15.3 mg/kg. In the case of `CCC(c1ccccc1)c1noc(CCN(CC)CC)n1` (stereo not drawn), the LD50 is listed as 1400 mg/kg. For `O=C(O)c1cc(Cl)cc([N+](=O)[O-])c1Cl`, the LD50 is listed as 2640 mg/kg and 3500 mg/kg. For `C=CCOC(Cn1ccnc1)c1ccc(Cl)cc1Cl` (stereo not drawn), the LD50 is given as 227 mg/kg. For `C#CCSP(=O)(OCC)OCC`, the LD50 is given as 18 mg/kg. For `Cc1cc(C)cc(OCC2CNC(=O)O2)c1` (stereo not drawn), the LD50 is listed as 775 mg/kg. In the case of `CC(=O)C=Cc1ccc(-c2ccccc2)cc1`, the LD50 is listed as 2230 mg/kg. For `O=CN(c1ncnc2c1ncn2C1CC1)C1CC1`, the LD50 is listed as 175 mg/kg. In the case of `CCOC(=O)Nc1ccco1`, the LD50 is given as 1980 mg/kg. In the case of `CCNc1nc(NC(C)C)nc(OC)n1`, the LD50 is given as 1460 mg/kg. In the case of `FC(F)(F)c1nc2cc(Cl)c(Cl)cc2[nH]1`, the LD50 is given as 7.88 mg/kg. In the case of `ClCC=CCCl`, the LD50 is listed as 89 mg/kg. In the case of `C=C(C)C#N`, the LD50 is given as 120 mg/kg. For `CCC(=O)OC(C)c1ccccc1` (stereo not drawn), the LD50 is listed as 5200 mg/kg. For `COCC(=O)O`, the LD50 is listed as 1000 mg/kg. For `COP(=S)(OC)SCn1nc(Cl)c(C)cc1=O`, the LD50 is given as 65 mg/kg. In the case of `OC(c1ccccc1)(c1ccccc1)C1CCNCC1`, the LD50 is given as 984 mg/kg. For `Cc1ccc2ncccc2c1`, the LD50 is listed as 800 mg/kg. In the case of `CCOc1ccccc1N1CCN(CCCCc2ccc3c(c2)CCC(=O)N3)CC1`, the LD50 is given as 500 mg/kg. In the case of `CCC(C(=O)OCCOCCN(CC)CC)c1ccccc1` (stereo not drawn), the LD50 is listed as 4160 mg/kg. For `CCOC(=O)C(CCc1ccccc1)NC(C)C(=O)N1C(C(=O)O)CC2CCCCC21` (stereo not drawn), the LD50 is listed as 2500 mg/kg. In the case of `CC(C)(C)c1cc(O)ccc1O`, the LD50 is given as 700 mg/kg. For `C[C@@H]1CN(CCCn2c3ccccc3c3ccccc32)C[C@H](C)N1`, the LD50 is listed as 907 mg/kg. For `CN=C(O)O/N=C1\COCCS1`, the LD50 is given as 37 mg/kg. In the case of `BrC=Cc1ccccc1`, the LD50 is listed as 1250 mg/kg. In the case of `Cc1ccc(OCC(=O)N[C@@H]2C(=O)N3[C@@H]2SC(C)(C)[C@@H]3C(=O)O)cc1Cl`, the LD50 is given as 2250 mg/kg. In the case of `CN(N=O)c1ccncc1`, the LD50 is listed as 200 mg/kg. In the case of `CC=C(C(=O)NC(N)=O)C(C)C`, the LD50 is given as 9000 mg/kg. In the case of `OC1CCCc2ccccc21` (stereo not drawn), the LD50 is listed as 1620 mg/kg. In the case of `Cc1c(C(C)C)c(=O)n(-c2ccccc2)n1C`, the LD50 is listed as 860 mg/kg. In the case of `COc1ccc(OC)c(C(O)CNC(=O)CN)c1` (stereo not drawn), the LD50 is listed as 68.8 mg/kg. In the case of `Cc1ccc([N+](=O)[O-])cc1N`, the LD50 is given as 574 mg/kg.
